Measurements taken from the supplement of paper PMC7108870.

Columns and labels:
HEK293sieSTAT3(Y640F) [1] = assay: drug sensitivity score (DSS), cytotoxicity CellTox Green (DSS (dimensionless)); higher = more cytotoxic; extreme values may be limits of the assay; conditions: 72 h; STAT3 variant: Y640F (constitutively active)
In short: (§1)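 HEK293 cells carrying a STAT3-dependent luciferase reporter and overexpressing wild-type or mutant STAT3 (20 μl at 100,000 cells/ml) were added to compounds acoustically pre-plated at 5 concentrations in 10-fold dilutions in 384-well plates. After 72 hours at 37°C and 5% CO2, CellTox Green fluorescence (485/520 nm) and then CellTiter-Glo luminescence were read on a PHERAstar FS. Values were normalised to negative and positive control wells, and a drug sensitivity score based on dose-response curve area was computed in Breeze. Each value comes from one representative of two experiments.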

HEK293sieSTAT3(wt) [2] = assay: as above; conditions: 72 h; STAT3 variant: wild type
In short: as §1

HEK293sieSTAT3(Y640F) [3] = assay: drug sensitivity score (DSS), viability CellTiter-Glo (DSS (dimensionless)); higher = more growth inhibition; extreme values may be limits of the assay; conditions: 72 h; STAT3 variant: Y640F (constitutively active)
In short: as §1

HEK293sieSTAT3(wt) [4] = assay: as above; conditions: 72 h; STAT3 variant: wild type
In short: as §1

SMILES | drug sensitivity score (HEK293sieSTAT3(Y640F) [1]) | drug sensitivity score (HEK293sieSTAT3(wt) [2]) | drug sensitivity score (HEK293sieSTAT3(Y640F) [3]) | drug sensitivity score (HEK293sieSTAT3(wt) [4])
CCCCCCCCCCCCCCCCCCOP(=O)([O-])OC1CC[N+](C)(C)CC1 [Perifosine] (top concentration tested 2500 nM) | 0 | 0.08 | 5.21 | 2.19
CN(c1ncccc1CNc1nc(Nc2ccc3c(c2)CC(=O)N3)ncc1C(F)(F)F)S(C)(=O)=O (top concentration tested 10000 nM) | 1.32 | 7.18 | 8.82 | 12
Cc1cc(Nc2cc(CN3CCOCC3)c3nc(C)c(Cc4ccc(Cl)cc4F)n3n2)n[nH]1 [Gandotinib] (top concentration tested 10000 nM) | 2.66 | 6.79 | 5.34 | 8.78
CNC(=O)c1ccc(C)c(-n2c(C)cc(OCc3ccc(F)cc3F)c(Br)c2=O)c1 (top concentration tested 1000 nM) | 0 | 0 | 4.08 | 3.62
Nc1cccc2c1C(=O)N(C1CCC(=O)NC1=O)C2=O (stereo unspecified) [Pomalidomide] (top concentration tested 10000 nM) | 0 | 0 | 0 | 0
O=C(O)CNC(=O)c1c(O)c2ccccc2n(Cc2ccccc2)c1=O [IOX-2] (top concentration tested 50000 nM) | 0 | 0 | 0 | 2.91
CN[C@@H]1C[C@H]2O[C@@](C)([C@@H]1OC)n1c3ccccc3c3c4c(c5c6ccccc6n2c5c31)C(=O)N[C@H]4O [UCN-01] (top concentration tested 10000 nM) | 3.93 | 9.92 | 28.3 | 29.5
COc1cc2ncnc(Oc3cccc(NC(=O)Nc4cc(C(C)(C)C(F)(F)F)on4)c3)c2cc1OC (top concentration tested 10000 nM) | 0.44 | 0 | 1.53 | 2.4
CN(C)C(=O)c1ccc(S(=O)(=O)c2ccc(NC(=O)[C@@](C)(O)C(F)(F)F)c(Cl)c2)cc1 [AZD7545] (top concentration tested 10000 nM) | 0 | 0 | 0.82 | 0.28
CCCOc1ccn2c(C(C)=O)cc(-c3ccccc3S(C)(=O)=O)c2c1 [GSK2801] (top concentration tested 10000 nM) | 0 | 0 | 0 | 0
CC(C)(C)c1cc(NC(=O)Nc2ccc(-c3cn4c(n3)sc3cc(OCCN5CCOCC5)ccc34)cc2)no1 [Quizartinib] (top concentration tested 1000 nM) | 0 | 1.05 | 2.15 | 2.01
CCN(CC)Cc1ccc2cc(COC(=O)Nc3ccc(C(=O)NO)cc3)ccc2c1 [Givinostat] (top concentration tested 1000 nM) | 4.23 | 6.08 | 10.8 | 11.6
NCCNc1ccc(NCCN)c2c1C(=O)c1ccncc1C2=O [Pixantrone] (top concentration tested 10000 nM) | 0 | 0 | 1.82 | 0
CN1CCC(CNc2ccc3ncc(-c4cccc(OC(F)(F)F)c4)n3n2)CC1 [SGI-1776] (top concentration tested 10000 nM) | 4.99 | 7.56 | 6.8 | 9.07
N#CC1(c2ccc(NC(=O)c3cccnc3NCc3ccncc3)cc2)CCCC1 [Apatinib] (top concentration tested 10000 nM) | 0.2 | 0.3 | 0.11 | 0
O=NN(CCCl)C(=O)NC1CCCCC1 [Lomustine] (top concentration tested 10000 nM) | 0 | 0 | 0 | 0
Cc1ncc(Cl)cc1NCc1ccc(C(=O)N[C@@H](CC2CCCC2)C(=O)NC2CC2)s1 (top concentration tested 5000 nM) | 0.4 | 0 | 4.24 | 0.63
CC[C@@H]1C(=O)OC[C@@H]1Cc1cncn1C [Pilocarpine] (top concentration tested 40000 nM) | 0 | 0 | 0.59 | 1.32
CNc1nc(Nc2cn(C(C)(C)C#N)nc2C)ncc1C(F)(F)F [GNE-0877] (top concentration tested 1000 nM) | 0 | 0 | 3.78 | 0.56
Nc1nc(Cl)nc2c1ncn2[C@H]1C[C@H](O)[C@@H](CO)O1 [Cladribine] (top concentration tested 1000 nM) | 0 | 0.33 | 1.45 | 6.32
COc1ccc(-c2cc3c(C)nc(N)nc3n([C@H]3CC[C@H](OCCO)CC3)c2=O)cn1 (top concentration tested 10000 nM) | 0 | 2.91 | 20.1 | 23.3
CO[C@@]12[C@H](COC(N)=O)C3=C(C(=O)C(C)=C(N)C3=O)N1C[C@@H]1N[C@@H]12 [Mitomycin C] (top concentration tested 10000 nM) | 0.86 | 1.95 | 14.5 | 5.72

SMILES | drug sensitivity score (HEK293sieSTAT3(Y640F) [1]) | drug sensitivity score (HEK293sieSTAT3(wt) [2]) | drug sensitivity score (HEK293sieSTAT3(Y640F) [3]) | drug sensitivity score (HEK293sieSTAT3(wt) [4])
O=C(NC[C@H](O)CN1CCc2ccccc2C1)c1cc(NC2COC2)ncn1 (top concentration tested 10000 nM) | 0 | 0 | 0 | 0
COc1ccc(C[C@H](NC(=O)[C@H](C)NC(=O)CN2CCOCC2)C(=O)N[C@@H](Cc2ccccc2)C(=O)C2(C)CO2)cc1 (stereo in doubt) [ONX-0914] (top concentration tested 10000 nM) | 18.6 | 19.9 | 19.9 | 21.7
CC/C(=C(\c1ccc(O)cc1)c1ccc(OCCN(C)C)cc1)c1ccccc1 [4-hydroxytamoxifen] (top concentration tested 10000 nM) | 6.81 | 7.36 | 6.34 | 7.39
CN(C)CCN1C(=O)c2cccc3cc(N)cc(c23)C1=O [Amonafide] (top concentration tested 10000 nM) | 1.87 | 7.09 | 11.3 | 15
CC(C)Cn1cnc2c(N)nc3ccccc3c21 [Imiquimod] (top concentration tested 2500 nM) | 0 | 0 | 4.36 | 2.55
O[C@H]1CC[C@H](Nc2ncc3nc(Nc4c(F)cc(F)cc4F)n([C@H]4CCOC4)c3n2)CC1 [Tanzisertib] (top concentration tested 10000 nM) | 0 | 0 | 0 | 2
CCc1cncnc1N1CCN(Cc2nc3ccc(C(F)(F)F)cc3[nH]2)CC1 (top concentration tested 10000 nM) | 1.05 | 0.48 | 2.33 | 1.35
CC(C)C[C@H](NC(=O)[C@H](CCc1ccccc1)NC(=O)CN1CCOCC1)C(=O)N[C@@H](Cc1ccccc1)C(=O)N[C@@H](CC(C)C)C(=O)[C@@]1(C)CO1 [Carfilzomib] (top concentration tested 1000 nM) | 26.5 | 31.9 | 31.2 | 32.8
CN[C@@H](C)C(=O)N[C@H]1CN(C(=O)CC(C)C)CC[C@H]2CC[C@@H](C(=O)NC(c3ccccc3)c3ccccc3)N2C1=O [AT-406] (top concentration tested 10000 nM) | 12.6 | 33.2 | 8.75 | 17.9
COc1cc(F)c(F)c(Nc2ccc(I)cc2F)c1NS(=O)(=O)C1(C[C@H](O)CO)CC1 [Refametinib] (top concentration tested 10000 nM) | 0 | 0 | 2.4 | 1.58
Clc1ccccc1C(c1ccccc1)(c1ccccc1)n1cccn1 [TRAM-34] (top concentration tested 1000 nM) | 0 | 0 | 1.41 | 1.55
CS(=O)(=O)N1CCN(Cc2cc3nc(-c4cccc5[nH]ncc45)nc(N4CCOCC4)c3s2)CC1 [Pictilisib] (top concentration tested 10000 nM) | 1.36 | 7.57 | 12.7 | 15.7
C[C@]12C=CC(=O)C=C1CC[C@@H]1[C@@H]2[C@@H](O)C[C@@]2(C)[C@H]1CC[C@]2(O)C(=O)CO [Prednisolone] (top concentration tested 10000 nM) | 0 | 0 | 0 | 0
C[C@]12CC[C@@H]3c4ccc(OC(=O)N(CCCl)CCCl)cc4CC[C@H]3[C@@H]1CC[C@@H]2O [Estramustine] (top concentration tested 10000 nM) | 0 | 0.3 | 0.65 | 0
CC(C)Nc1cc(-c2c[nH]c(C(=O)N[C@H](CO)c3cccc(Cl)c3)c2)c(Cl)cn1 [Ulixertinib] (top concentration tested 10000 nM) | 0 | 0 | 4.62 | 3.95
C/C(=C\c1csc(C)n1)[C@@H]1C[C@@H]2O[C@]2(C)CCC[C@H](C)[C@H](O)[C@@H](C)C(=O)C(C)(C)[C@@H](O)CC(=O)N1 [Ixabepilone] (top concentration tested 1000 nM) | 0.83 | 3.56 | 6.8 | 8.23
CC(=O)O[C@]1(C(C)=O)CC[C@H]2[C@@H]3C=C(C)C4=CC(=O)CC[C@]4(C)[C@H]3CC[C@@]21C [Megestrol acetate] (top concentration tested 10000 nM) | 0 | 0 | 3.65 | 0.97
COc1cc([C@@H]2c3cc4c(cc3[C@@H](O[C@@H]3O[C@@H]5CO[C@@H](C)O[C@H]5[C@H](O)[C@H]3O)[C@H]3COC(=O)[C@H]23)OCO4)cc(OC)c1O [Etoposide] (top concentration tested 10000 nM) | 3.46 | 7.94 | 17.6 | 20
NS(=O)(=O)NCCNc1nonc1/C(=N/O)Nc1ccc(F)c(Br)c1 [Epacadostat] (top concentration tested 10000 nM) | 0 | 0 | 1.76 | 0.37
Cn1cc(-c2ccc3nnc(Sc4ccc5ncccc5c4)n3n2)cn1 [SGX-523] (top concentration tested 5000 nM) | 0.89 | 0 | 0 | 0.49
COC1=CC(c2cc3ccccc3[nH]2)=N/C1=C\c1[nH]c(C)cc1C [Obatoclax] (top concentration tested 10000 nM) | 0 | 0 | 1.57 | 2.27
O=C(NOCC1CC1)c1ccc(F)c(F)c1Nc1ccc(I)cc1Cl (top concentration tested 10000 nM) | 0 | 0 | 1.63 | 2.33
